Where a name gives a salt, the structure may show the parent alone.
Biological target: T1, human neuropeptide Y5 receptor (Homo sapiens, UniProt Q15761)
T1 construct: expressed in transfected cells; host or cells: HEK-293 (stably transfected, G-418 selected); membranes
T1 sequence (Q15761 1-445): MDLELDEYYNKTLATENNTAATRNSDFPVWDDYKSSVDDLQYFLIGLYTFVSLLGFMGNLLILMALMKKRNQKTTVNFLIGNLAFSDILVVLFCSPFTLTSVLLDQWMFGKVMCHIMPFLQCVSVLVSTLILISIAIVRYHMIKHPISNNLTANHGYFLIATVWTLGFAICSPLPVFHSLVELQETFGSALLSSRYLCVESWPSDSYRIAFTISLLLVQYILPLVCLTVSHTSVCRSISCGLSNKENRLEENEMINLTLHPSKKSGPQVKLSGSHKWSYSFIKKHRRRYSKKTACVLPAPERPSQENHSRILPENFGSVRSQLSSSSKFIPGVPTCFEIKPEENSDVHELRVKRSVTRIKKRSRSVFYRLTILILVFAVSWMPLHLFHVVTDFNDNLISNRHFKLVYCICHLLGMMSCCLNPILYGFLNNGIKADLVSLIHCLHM
Assay: NPY5 HTS centrifugation assay: competition with 125I-PYY for binding to membranes of NPY5-transfected HEK293 cells
Settings: 80 pM 125I-PYY, 1 hr room temperature; for % Inh @ 300 nM (% Inhibition of 125I-PYY Binding) / inhibition at 0.3 µM: 300 nM compound; for % Inh @ 3 uM (% Inhibition of 125I-PYY Binding) / inhibition at 3 µM: 3 uM compound; for inhibition at 0.3 µM: read-out: % Inh @ 300 nM (% Inhibition of 125I-PYY Binding); for inhibition at 3 µM: read-out: % Inh @ 3 uM (% Inhibition of 125I-PYY Binding)
Method: The compounds described in this invention were evaluated for binding to the human neuropeptide Y5 receptor.
Stably transfected cells served as the source for the membranes for the NPY5 receptor binding assay.
NPY5-transfected HEK293 cells were grown to confluence in 150 cm^2 culture dishes. […] Cells were then incubated in phosphate-buffered saline without Calcium and without Magnesium, supplemented with 2 mM EDTA. Cells were incubated for 10 minutes at room temperature and the cells were collected by repetitive pipeting. Cells were formed into pellets and then frozen at −80 until needed. Frozen pellets were homogenized with a polytron at full speed for 12 seconds in a homogenization buffer (20 mM Tris HCl, 5 mM EDTA, pH 7.4). Homogenates were centrifuged for 5 minutes at 4 C at 200 g. Supernatants were transferred to corex tubes and centrifuged for 25 minutes at 28,000 g. Pellets were re-suspended in Binding (20 mM HEPES, 10 mM NaCl, 0.22 mM KH2PO4, 1.3 mM CaCl2, 0.8 mM MgSO4, pH 7.4). Membranes were kept on ice until use.
Compounds to be tested were prepared as 10× stocks in binding buffer and added first to assay tubes (RIA vials, Sarstedt). […] To each tube is added 100 μL of membranes and the mixture is agitated by pipeting 2 times. Samples are incubated for 1 hr at room temperature. Aluminum cast plates (Sarstedt) containing the vials are then centrifuged 10 minutes at 3200 rpm in a Sorvall RT6000. Supernatant is then aspirated. To each vial 400 μL PBS is added and this is then aspirated again. Vials are then put in carrier polypropylene 12×75 tube and counted in gamma counter (Packard). Non-specific binding is determined in the presence of 300 nM NPY. […] These operations are known to those skilled in the art.

SMILES	% Inh @ 300 nM (% Inhibition of 125I-PYY Binding) [%]	% Inh @ 3 uM (% Inhibition of 125I-PYY Binding) [%]	inhibition at 0.3 µM [%]	inhibition at 3 µM [%]
CN(C)C(CCCCNS(=O)(=O)c1ccccc1)C(=O)NC1CCc2ccccc2C1Cc1cccnc1 (single isomer, unassigned) [Compound 43b]	62	86		
NC(CCCCNS(=O)(=O)c1ccccc1)CNC1CCc2ccccc2C1Cc1cccnc1 (single isomer, unassigned) [Compound 66]	98	102		
COc1ccc2c(c1)CCC(NC(=O)[C@H](CCCCNS(=O)(=O)c1ccccc1F)NC(C)=O)C2Cc1cccnc1 (stereo partly drawn) [Compound 10, (2S)-2-(Acetylamino)-6-[(2-fluorophenylsulfonyl)amino]-N-[cis-1,2,3,4-tetrahydro-6-methoxy-1-(3-pyridinylmethyl)-2-naphthenyl]hexanamide bis-hydrochloride]			60	96
O=S(=O)(NC[C@H]1CC[C@H](CNCC(Cc2cccnc2)c2ccc(F)cc2)CC1)c1ccccc1F (some centres unmarked) [Compound 27]			105	110
O=C(CN1CCC(NS(=O)(=O)c2ccccc2F)CC1)NCC(Cc1cccnc1)c1ccc(F)cc1 (centres unmarked) [Compound 30, N-[2-(4-Fluorophenyl)-3-(3-pyridinyl)propyl]-4-[(2-fluorophenylsulfonyl)amino]-1-piperidineacetamide bis-trifluoroacetate]			100	110
O=C(CN1CCC(n2c(=O)[nH]c3ccccc32)CC1)NC1CCc2ccccc2C1Cc1cccnc1 (centres unmarked) [Compound 31]	91	100		
O=C(CN1CCC(NC(=O)c2ccccc2)CC1)NC1CCc2cc(F)ccc2C1Cc1cccnc1 (centres unmarked) [Compound 44]	93	98		
O=C(CN1CCC(NC(=O)Nc2ccccc2)CC1)NC1CCc2cc(F)ccc2C1Cc1cccnc1 (centres unmarked) [Compound 45]	68	95		
O=C(Cc1ccccc1)NC1CCN(CC(=O)NC2CCc3cc(F)ccc3C2Cc2cccnc2)CC1 (centres unmarked) [Compound 47]	91	98		
O=C(CN1CCC(NS(=O)(=O)c2ccccc2)CC1)NC1CCc2cc(F)ccc2C1Cc1cccnc1 (centres unmarked) [Compound 48]	97	103		
O=C(CN1CCC(NC(=O)Nc2ccccc2)CC1)NC1CCc2ccccc2C1Cc1cccnc1 (centres unmarked) [Compound 51]	85	102		
CC(C)(C)NC(=O)NC1CCN(CC(=O)NC2CCc3cc(F)ccc3C2Cc2cccnc2)CC1 (centres unmarked) [Compound 53]	84	92		
CC(C)(C)OC(=O)NC1CCN(CC(=O)NC2CCc3cc(F)ccc3C2Cc2cccnc2)CC1 (centres unmarked) [Compound 54]	99	100		
CC(C)(C)OC(=O)NC1CCN(CC(=O)NC2CCc3cc(F)ccc3C2Cc2cccnc2)C1 (centres unmarked) [Compound 55]	96	106		
COc1ccc2c(c1)CCC(NC(=O)CN1CCC(n3c(=O)[nH]c4ccccc43)CC1)C2Cc1ccsc1 (centres unmarked) [Compound 61]	66	87		
COc1ccc2c(c1)CCC(NC(=O)CN1CCC(n3c(=O)[nH]c4ccccc43)CC1)C2Cc1cnc[nH]1 (centres unmarked) [Compound 73]	32	63		
COc1ccc2c(c1)CCC(NC(=O)CN1CCC(n3c(=O)[nH]c4ccccc43)CC1)C2 (centres unmarked) [Compound 82]	63	85		
O=C(CN1CCC(n2c(=O)[nH]c3ccccc32)CC1)NC1CCc2cc(O)ccc2C1 (centres unmarked) [Compound 83]	72	92		
COc1ccc(C(CNC(=O)CN2CCC(n3c(=O)[nH]c4ccccc43)CC2)Cc2cccnc2)cc1 (centres unmarked) [Compound 86]	88	91		
O=C(CN1CCC(n2c(=O)[nH]c3ccccc32)CC1)NCC(Cc1cccnc1)c1ccc(O)cc1 (centres unmarked) [Compound 87]	97	96		
O=C(CN1CCC(NC(=O)c2ccccc2)CC1)NCC(Cc1cccnc1)c1ccc(F)cc1 (centres unmarked) [Compound 92]	92	104		
COc1ccccc1N1CCN(CC(=O)NC2CCc3ccccc3C2Cc2cccnc2)CC1 (centres unmarked) [Compound 93]	81	97		

From patent US7071195B2, “Amine and amide derivatives as ligands for the neuropeptide Y Y5 receptor useful in the treatment of obesity and other disorders” (Ortho-McNeil Pharmaceutical, Inc., priority 1999, dated 2006)
